# System: rice (var. Nihonbare)
# Experiment: Test Example 3: paddy pot test, transplanted rice
# Format: in vivo, Oryza sativa L.
# Details: active ingredient 250 g/ha, applied 4th day after transplantation, visually observed 21st day after application, 0 = non-treated, 100 = complete kill
# In short: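 Rice (2-leaf stage) was transplanted 3 cm deep into puddled, leveled paddy soil under 3–4 cm flooding. On day 4 after transplanting, diluted wettable powder or emulsifiable concentrate was pipetted onto the water at a predetermined active-ingredient dose. Growth control (0 = untreated, 100 = complete kill) was scored visually 21 days later.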
row,Compound,Growth controlling degree (%) Rice [%]
1,"CCN(C(=O)Cc1c(F)cccc1F)C(c1cnccc1C(F)(F)F)C(C)C (centres unmarked) [I-30, N-ethyl-N-[2-methyl-1-(4-trifluoromethylpyridin-3-yl)propyl]2,6-difluorophenylacetamide]",0

# System: barnyardgrass
# Experiment: Test Example 3: paddy pot test, application under submerged conditions
# Format: in vivo, Echinochloa crus-galli L.
# Details: active ingredient 250 g/ha; submerged application at 0.5 leaf stage; visually observed 14 days after application; 0 = non-treated, 100 = complete kill
# In short: (§1)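 After sowing seeds and planting wapato tubers in flooded paddy soil, an aqueous dilution of the formulated compound was added to the 3–4 cm flood water at early leaf stage. Percent growth control relative to the untreated plot was assessed visually on day 14.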
row,Compound,Growth controlling degree (%) Barnyardgrass [%]
1,"CCN(C(=O)Cc1c(F)cccc1F)C(c1cnccc1C(F)(F)F)C(C)C (centres unmarked) [I-30, N-ethyl-N-[2-methyl-1-(4-trifluoromethylpyridin-3-yl)propyl]2,6-difluorophenylacetamide]",100

# System: japanese ribbon wapato
# Experiment: as above
# Format: in vivo, Sagittaria pygniaea
# Details: active ingredient 250 g/ha; submerged application at primary leaf stage; visually observed 14 days after application; 0 = non-treated, 100 = complete kill
# In short: as §1
row,Compound,Growth controlling degree (%) Japanese ribbon wapato [%]
1,"CCN(C(=O)Cc1c(F)cccc1F)C(c1cnccc1C(F)(F)F)C(C)C (centres unmarked) [I-30, N-ethyl-N-[2-methyl-1-(4-trifluoromethylpyridin-3-yl)propyl]2,6-difluorophenylacetamide]",80

# System: japanese bulrush
# Experiment: as above
# Format: in vivo, Scirpus juncoides
# Details: active ingredient 250 g/ha; submerged application at 0.5 leaf stage; visually observed 14 days after application; 0 = non-treated, 100 = complete kill
# In short: as §1
row,Compound,Growth controlling degree (%) Japanese bulrush [%]
1,"CCN(C(=O)Cc1c(F)cccc1F)C(c1cnccc1C(F)(F)F)C(C)C (centres unmarked) [I-30, N-ethyl-N-[2-methyl-1-(4-trifluoromethylpyridin-3-yl)propyl]2,6-difluorophenylacetamide]",90

# System: not given
# Experiment: not given
# Details: not given
row,Compound,melting point [°C]
1,"CCN(C(=O)Cc1c(F)cccc1F)C(c1cnccc1C(F)(F)F)C(C)C (centres unmarked) [I-30, N-ethyl-N-[2-methyl-1-(4-trifluoromethylpyridin-3-yl)propyl]2,6-difluorophenylacetamide]",121.9

# — patent publication US20050239656A1, “Pyridine compounds or salts thereof and herbicides containing the same” (priority 2002, published 2005)
